From ChEMBL document CHEMBL1671786, “Probes for narcotic receptor mediated phenomena. 41. Unusual inverse μ-agonists and potent μ-opioid antagonists by modification of the N-substituent in enantiomeric 5-(3-hydroxyphenyl)morphans” (J Med Chem, 2011)

Key:
[1] = target: T1, Mu-type opioid receptor (Homo sapiens, UniProt P35372); assay: Displacement of [125I]IOXY from human recombinant mu opioid receptor expressed in CHO cells; type: cell-based
[2] = target: T1, Mu-type opioid receptor
Description: Inverse agonist activity at mu opioid receptor by [35S]GTPgammaS binding assay

[3] = target: Delta-type opioid receptor (Homo sapiens, UniProt P41143); assay: Displacement of [125I]IOXY from human recombinant delta opioid receptor expressed in CHO cells; type: cell-based
Delta-type opioid receptor, sequence (P41143 whole entry): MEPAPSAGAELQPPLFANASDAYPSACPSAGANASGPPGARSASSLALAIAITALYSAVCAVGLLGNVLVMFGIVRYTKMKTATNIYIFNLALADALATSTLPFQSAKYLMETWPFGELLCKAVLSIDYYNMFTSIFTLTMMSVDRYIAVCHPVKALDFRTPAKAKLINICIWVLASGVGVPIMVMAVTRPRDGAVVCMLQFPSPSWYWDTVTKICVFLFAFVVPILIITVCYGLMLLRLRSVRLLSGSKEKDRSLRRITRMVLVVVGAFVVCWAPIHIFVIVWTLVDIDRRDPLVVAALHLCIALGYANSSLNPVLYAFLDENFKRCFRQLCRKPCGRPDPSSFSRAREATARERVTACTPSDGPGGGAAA

[4] = target: Kappa-type opioid receptor (Homo sapiens, UniProt P41145); assay: Displacement of [125I]IOXY from human recombinant kappa opioid receptor expressed in CHO cells; type: cell-based
Kappa-type opioid receptor, sequence (P41145 whole entry): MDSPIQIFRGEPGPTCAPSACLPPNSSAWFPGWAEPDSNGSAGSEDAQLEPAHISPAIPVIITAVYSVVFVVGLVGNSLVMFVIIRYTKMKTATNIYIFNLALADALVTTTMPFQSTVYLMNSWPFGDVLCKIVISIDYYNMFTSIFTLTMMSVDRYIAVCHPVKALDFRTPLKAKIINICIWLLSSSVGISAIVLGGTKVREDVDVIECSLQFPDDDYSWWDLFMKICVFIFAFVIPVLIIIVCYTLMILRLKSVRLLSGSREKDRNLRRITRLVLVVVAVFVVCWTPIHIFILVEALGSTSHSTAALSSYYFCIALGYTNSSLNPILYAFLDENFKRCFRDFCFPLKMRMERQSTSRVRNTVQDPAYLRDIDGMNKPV

[5] = target: T1, Mu-type opioid receptor; assay: Binding affinity to mu opioid receptor

T1 sequence (P35372 whole entry): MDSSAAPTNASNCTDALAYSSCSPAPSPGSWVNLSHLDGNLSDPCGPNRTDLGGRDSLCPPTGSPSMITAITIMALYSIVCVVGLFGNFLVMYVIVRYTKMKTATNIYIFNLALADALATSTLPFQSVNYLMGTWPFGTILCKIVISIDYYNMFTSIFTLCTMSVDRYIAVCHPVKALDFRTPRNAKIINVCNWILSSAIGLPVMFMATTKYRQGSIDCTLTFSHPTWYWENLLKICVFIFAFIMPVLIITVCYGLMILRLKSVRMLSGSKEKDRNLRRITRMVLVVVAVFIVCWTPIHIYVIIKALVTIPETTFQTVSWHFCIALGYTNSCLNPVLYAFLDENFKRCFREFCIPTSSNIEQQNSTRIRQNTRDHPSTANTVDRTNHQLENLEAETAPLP

Structure (SMILES) | Ki [1] [nM] | Ke [2] [nM] | Ki [3] [nM] | Ki [4] [nM] | Ki [5] [nM]
Oc1cccc([C@]23CCC[C@H](C2)N(C[C@H]2C[C@H]2c2ccccc2)CC3)c1 | 76 | 18 | 547 | 174 | 
Oc1cccc([C@]23CCC[C@H](C2)N(C[C@H]2C[C@@H]2c2ccccc2)CC3)c1 | 16 | 2.2 | 183 | 323 | 
Oc1cccc([C@]23CCC[C@H](C2)N(C/C=C\c2ccccc2)CC3)c1 (single isomer, unassigned) | 26 | 3.1 | 454 | 123 | 
Oc1cccc(C23CCCC(C2)N(C/C=C/c2ccccc2)CC3)c1 (single isomer, unassigned; (-)) [listing 1 of 2 here] | 6 |  | 152 | 225 | 
Oc1cccc(C23CCCC(C2)N(C/C=C/c2ccccc2)CC3)c1 (single isomer, unassigned; (+)) [listing 1 of 2 here] | 2 |  | 138 | 125 | 
Oc1cccc([C@]23CCC[C@H](C2)N(C[C@@H]2C[C@H]2c2ccccc2)CC3)c1 | 47 | 9.4 | 800 | 390 | 
C[C@H]1CN(CC2CC2c2ccccc2)CC[C@@]1(C)c1cccc(O)c1 (some centres undefined) |  |  |  |  | 1.75
Oc1cccc(C23CCCC(C2)N(C/C=C/c2ccccc2)CC3)c1 (single isomer, unassigned; (-)) [listing 2 of 2 here] |  | 6.6 |  |  | 
Oc1cccc([C@@]23CCC[C@@H](C2)N(C[C@@H]2C[C@@H]2c2ccccc2)CC3)c1 | 11 | 8.2 | 196 | 322 | 
Oc1cccc(C23CCCC(C2)N(C/C=C/c2ccccc2)CC3)c1 (single isomer, unassigned; (+)) [listing 2 of 2 here] |  | 0.58 |  |  | 
Oc1cccc([C@@]23CCC[C@@H](C2)N(C/C=C\c2ccccc2)CC3)c1 (single isomer, unassigned) | 14 | 7.7 | 359 | 367 | 
Oc1cccc([C@]23CCC[C@H](C2)N(C[C@@H]2C[C@@H]2c2ccccc2)CC3)c1 | 265 | 8.6 | 610 | 153 | 
Oc1cccc([C@@]23CCC[C@@H](C2)N(C[C@@H]2C[C@H]2c2ccccc2)CC3)c1 | 4 | 0.31 | 200 | 210 | 
Oc1cccc([C@@]23CCC[C@@H](C2)N(C[C@H]2C[C@H]2c2ccccc2)CC3)c1 | 459 | 33 | 1980 | 475 | 
Oc1cccc([C@@]23CCC[C@@H](C2)N(C[C@H]2C[C@@H]2c2ccccc2)CC3)c1 | 3 | 0.17 | 165 | 72 | 
